Source: patent US8461083B2, “Herbicidal compounds” (Syngenta Limited, priority 2008, dated 2013)

How the values were obtained:
[1] = system: Alopecurus myosuroides (ALOMY); experiment: Pre-emergence herbicidal glasshouse test; type: in vivo; settings: Alopecurus myosuroides, 312 h, pre-emergence (sprayed after one day cultivation), evaluated after 13 days, 100=total damage to plant, 0=no damage to plant, read-out: PRE Application ALOMY, damage to plant
In short: (§1)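 Sow in standard soil; grow 1 d (pre-emergence) or 8 d (post-emergence) at 24/16 °C, 14 h light, 65% humidity. Spray test compound at 1000 g/ha in aqueous acetone (50:50) with 0.5% Tween 20. Grow on under the same conditions and score injury (0–100) after 13 days.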

[2] = system: Setaria faberi (SETFA); experiment: Pre-emergence herbicidal glasshouse test; type: in vivo; settings: Setaria faberi, 312 h, pre-emergence (sprayed after one day cultivation), evaluated after 13 days, 100=total damage to plant, 0=no damage to plant, read-out: PRE Application SETFA, damage to plant
In short: as §1

[3] = system: Solanum nigrum (SOLNI); experiment: Pre-emergence herbicidal glasshouse test; type: in vivo; settings: Solanum nigrum, 312 h, pre-emergence (sprayed after one day cultivation), evaluated after 13 days, 100=total damage to plant, 0=no damage to plant, read-out: PRE Application SOLNI, damage to plant
In short: as §1

[4] = system: Echinochloa crus-galli (ECHCG); experiment: Pre-emergence herbicidal glasshouse test; type: in vivo; settings: Echinochloa crus-galli, 312 h, pre-emergence (sprayed after one day cultivation), evaluated after 13 days, 100=total damage to plant, 0=no damage to plant, read-out: PRE Application ECHCG, damage to plant
In short: (§2)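 Damage was rated visually 13 days after treatment on a 0–100 scale, 100 meaning total damage. Pot-grown plants received a 1000 g/ha spray in acetone/water (50:50) containing 0.5% Tween 20, either one day after sowing or after eight days of growth.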

[5] = system: Alopecurus myosuroides (ALOMY); experiment: Post-emergence herbicidal glasshouse test; type: in vivo; settings: Alopecurus myosuroides, 312 h, post-emergence (sprayed after 8 days cultivation), evaluated after 13 days, 100=total damage to plant, 0=no damage to plant, read-out: POST Application ALOMY, damage to plant
In short: as §1

[6] = system: Setaria faberi (SETFA); experiment: Post-emergence herbicidal glasshouse test; type: in vivo; settings: Setaria faberi, 312 h, post-emergence (sprayed after 8 days cultivation), evaluated after 13 days, 100=total damage to plant, 0=no damage to plant, read-out: POST Application SETFA, damage to plant
In short: as §1

[7] = system: Amaranthus retoflexus (AMARE); experiment: Post-emergence herbicidal glasshouse test; type: in vivo; settings: Amaranthus retroflexus, 312 h, post-emergence (sprayed after 8 days cultivation), evaluated after 13 days, 100=total damage to plant, 0=no damage to plant, read-out: POST Application AMARE, damage to plant
In short: as §1

[8] = system: Solanum nigrum (SOLNI); experiment: Post-emergence herbicidal glasshouse test; type: in vivo; settings: Solanum nigrum, 312 h, post-emergence (sprayed after 8 days cultivation), evaluated after 13 days, 100=total damage to plant, 0=no damage to plant, read-out: POST Application SOLNI, damage to plant
In short: as §1

[9] = system: Echinochloa crus-galli (ECHCG); experiment: Post-emergence herbicidal glasshouse test; type: in vivo; settings: Echinochloa crus-galli, 312 h, post-emergence (sprayed after 8 days cultivation), evaluated after 13 days, 100=total damage to plant, 0=no damage to plant, read-out: POST Application ECHCG, damage to plant
In short: as §2

[10] = system: Amaranthus retoflexus (AMARE); experiment: Pre-emergence herbicidal glasshouse test; type: in vivo; settings: Amaranthus retroflexus, 312 h, pre-emergence (sprayed after one day cultivation), evaluated after 13 days, 100=total damage to plant, 0=no damage to plant, read-out: PRE Application AMARE, damage to plant
In short: as §1

| SMILES | pest or weed control at 1000 g/ha [1] [%] | pest or weed control at 1000 g/ha [2] [%] | pest or weed control at 1000 g/ha [3] [%] | pest or weed control at 1000 g/ha [4] [%] | pest or weed control at 1000 g/ha [5] [%] | pest or weed control at 1000 g/ha [6] [%] | pest or weed control at 1000 g/ha [7] [%] | pest or weed control at 1000 g/ha [8] [%] | pest or weed control at 1000 g/ha [9] [%] | melting point [°C] | pest or weed control at 1000 g/ha [10] [%] |
| --- | --- | --- | --- | --- | --- | --- | --- | --- | --- | --- | --- |
| COCC(F)(F)c1nc2nc(C)c(F)cc2cc1C(=O)C1C(=O)C2CCC(C2)C1=O (centres unmarked) [Compound 3.13, 3-[6-fluoro-2-(2-methoxy-1,1-difluoroethyl)-7-methyl [1,8]-naphthyridine-3-carbonyl]-bicyclo[3.2.1]octane-2,4-dione] | 10 | 80 | 80 | 100 | 40 | 80 | 70 | 70 | 80 | 177 to 180 |  |
| Cc1nc2nc(C(F)(F)F)c(C(=O)C3C(=O)C(C)(C)OC(C)(C)C3=O)cc2cc1F [Compound 5.2] | 90 | 100 | 100 | 100 | 70 | 80 | 90 | 70 | 80 |  | 100 |
